The text below walks through data of patent US20260015363A1, “SUBSTITUTED PYRIMIDINE-FUSED RING INHIBITOR, METHOD FOR PREPARING SAME, AND USE THEREOF” (Suzhou Zelgen Biopharmaceuticals Co., Ltd., priority 2022, published 2026).

Structures are written as SMILES.

One assay concerns MNK1 (WT). Kind of assay: Cell proliferation inhibition assay (CellTiter-Glo 3D), MNK1. The settings on record: Homo sapiens, 168 h, MNK1 (WT) cells, 7 days. Format: cell-based, human. As for the experimental part:
(§1) Positive control: MRTX1133
(§2) • (a) The cells were thawed in T75 cell culture flasks: • (b) When 80%-90% cell confluence was achieved, the cells were passaged.
(§3) The diluted test compound was added to a 384-well cell culture plate using a nanoliter pipetting system, and replicate wells were set. An equal volume of medium was added to the positive control group; an equal volume of DMSO was added to the negative control group. The plate was centrifuged at 1000 rpm at room temperature for 1 min.
(§4) The cells were seeded into a) 384-well culture plate. An equal volume of cells was added to the negative control group, and only an equal volume of medium was added to the positive control group. The plate was centrifuged at 1000 rpm at room temperature for 1 min. The final DMSO concentration in the final compound was 0.5%. The plate was incubated in a thermostatic incubator at 37° C. with 5% CO2 for 7 days.
(§5) CellTiter-Glo® 3D was added to b) 384-well cell culture plate at 20 μL/well. The plate was shaken at 320 rpm in the dark for 20 min, and incubated at room temperature in the dark for 2 h. The luminescence values were read using an Envision multi-mode microplate reader.
(§6) The inhibition rates (IRs) of the test compounds were calculated according to the following formula: IR (%)=(1−(RLU compound−RLU blank control)/(RLU vehicle control−RLU blank control))×100%. The inhibition rates of the compounds at different concentrations were calculated in Excel, and then inhibition curves were plotted and relevant parameters including minimum inhibition rate, maximum inhibition rate and IC50 were calculated using GraphPad Prism software.

Another assay concerns AsPC-1 (G12D). Briefly: KRAS mutant cell proliferation inhibition assay (CellTiter-Glo 3D), AsPC-1. Format: cell-based, human. The settings on record: Homo sapiens, ASPC1, 168 h, AsPC-1 (G12D) cells, 7 days.
The subject of the next assay is H727 (G12V). Briefly: KRAS mutant cell proliferation inhibition assay (CellTiter-Glo 3D), H727. Format: cell-based, human. Particulars: Homo sapiens, NCI-H727, 168 h, H727 (G12V) cells, 7 days. On the procedure:
as §1, §2, §3, §4, §5, §6

In another assay the test system is PSN-1 (G12R). Briefly: KRAS mutant cell proliferation inhibition assay (CellTiter-Glo 3D), PSN-1. Format: cell-based. Particulars: Homo sapiens, PSN1, 168 h, PSN-1 (G12R) cells, 7 days. On the procedure:
as §1, §2, §3, §4, §5, §6

Take `CN(C)C(=O)c1cc2n(n1)CCCN(c1nc(OC[C@@]34CCCN3C[C@@]3(CC3(F)F)C4)nc3c(F)c(-c4cc(N)cc(Cl)c4C(F)(F)F)ncc13)C2` [Example A-25, 5-(7-(5-Amino-3-chloro-2-(trifluoromethyl)phenyl)-2-(((1S,7a'S)-2,2-difluorodihydro-1′H,3′H-spiro[cyclopropane-1,2′-pyrrolizin]-7a′ (5′H)-yl)methoxy)-8-fluoropyrido[4,3-d]pyrimidin-4-yl)-N,N-dimethyl-5,6,7,8-tetrahydro-4H-pyrazolo[1,5-a][1,4]diazepine-2-carboxamide]: the IC50 in the assay on MNK1 (WT) is 66.3 nM; with AsPC-1 (G12D) it was 33.6 nM; in the assay with H727 (G12V), 141 nM; in the assay on PSN-1 (G12R), > 10000 nM.

For `CCc1c(F)ccc2cc(O)cc(-c3ncc4c(N5CCC[C@@]6(C5)NC(=O)NC6=O)nc(OC[C@@]56CCCN5C[C@@]5(CC5(F)F)C6)nc4c3F)c12` [Example A-26, (S)-7-(2-(((1S,7a'S)-2,2-Difluorodihydro-1′H,3′H-spiro[cyclopropane-1,2′-pyrrolizin]-7a′ (5′H)-yl)methoxy)-7-(8-ethyl-7-fluoro-3-hydroxynaphthalen-1-yl)-8-fluoropyrido[4,3-d]pyrimidin-4-yl)-1,3,7-triazaspiro[4.5]decane-2,4-dione], the IC50 with MNK1 (WT) is 1620 nM; with AsPC-1 (G12D) it was > 1000 nM; with H727 (G12V), 7370 nM; with PSN-1 (G12R) it was > 10000 nM.

For the compound `CCc1c(F)ccc2cc(O)cc(-c3ncc4c(N5CCC[C@]6(C5)NC(=O)NC6=O)nc(OC[C@@]56CCCN5C[C@@]5(CC5(F)F)C6)nc4c3F)c12` [Example A-27, (R)-7-(2-(((1S,7a'S)-2,2-Difluorodihydro-1′H,3′H-spiro[cyclopropane-1,2′-pyrrolizin]-7a′ (5′H)-yl)methoxy)-7-(8-ethyl-7-fluoro-3-hydroxynaphthalen-1-yl)-8-fluoropyrido[4,3-d]pyrimidin-4-yl)-1,3,7-triazaspiro[4.5]decane-2,4-dione], the IC50 in the assay on MNK1 (WT) was found to be 5.35 nM; in the assay with AsPC-1 (G12D) it was 23.2 nM; with H727 (G12V) it was 35.9 nM; with PSN-1 (G12R), 79.7 nM.

As to `CCc1c(F)ccc2cc(O)cc(-c3ncc4c(N5CCOCC(C)(O)C5)nc(OC[C@@]56CCCN5C[C@@]5(CC5(F)F)C6)nc4c3F)c12` (stereo partly drawn) [Example A-38, 4-(2-(((1S,7a'S)-2,2-Difluorodihydro-1′H,3′H-spiro[cyclopropane-1,2′-pyrrolizin]-7a′ (5′H)-yl)methoxy)-7-(8-ethyl-7-fluoro-3-hydroxynaphthalen-1-yl)-8-fluoropyrido[4,3-d]pyrimidin-4-yl)-6-methyl-1.4-oxazenan-6-ol], the IC50 is 21.4 nM in the assay with MNK1 (WT), 31.6 nM in the assay with AsPC-1 (G12D), 119 nM in the assay on H727 (G12V) and > 10000 nM with PSN-1 (G12R).

For the compound `CC1(O)COCCN(c2nc(OC[C@@]34CCCN3C[C@@]3(CC3(F)F)C4)nc3c(F)c(-c4cc(N)cc(Cl)c4C(F)(F)F)ncc23)C1` (stereo partly drawn) [Example A-39, 4-(7-(5-Amino-3-chloro-2-(trifluoromethyl)phenyl)-2-(((1S,7a'S)-2,2-difluorodihydro-1′H,3′H-spiro[cyclopropane-1,2′-pyrrolizin]-7a′ (5′H)-yl)methoxy)-8-fluoropyrido[4,3-d]pyrimidin-4-yl)-6-methyl-1.4-oxazenan-6-ol], the IC50 in the assay with MNK1 (WT) is 273 nM; with AsPC-1 (G12D), 293 nM; in the assay on H727 (G12V), 604 nM; in the assay with PSN-1 (G12R), > 10000 nM.

Regarding `CCc1c(F)ccc2cc(O)cc(N3CCc4c(nc(OC[C@@]56CCCN5C[C@@]5(CC5(F)F)C6)nc4N4CCCn5nc(C(=O)N(C)C)cc5C4)C3)c12` [Example B-13, 5-(2-(((1S,7a'S)-2,2-Difluorodihydro-1′H,3′H-spiro[cyclopropane-1,2′-pyrrolizin]-7a′ (5′H)-yl)methoxy)-7-(8-ethyl-7-fluoro-3-hydroxynaphthalen-1-yl)-5,6,7,8-tetrahydropyrido[3,4-d]pyrimidin-4-yl)-N,N-dimethyl-5,6,7,8-tetrahydro-4H-pyrazolo[1,5-a][1,4]diazepine-2-carboxamide], the IC50 came to 24.3 nM with MNK1 (WT), 8.98 nM with AsPC-1 (G12D), 47.3 nM in the assay on H727 (G12V) and 2350 nM in the assay with PSN-1 (G12R).
